PubChem BioAssay (NCI)
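Growth conditions: 96-well plates. Treatment: test compound, 48 hours, 5 concentrations. Analysis: linear interpolation between bracketing concentrations; unreached endpoints set to highest concentration. TGI: concentration producing complete growth inhibition.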

Key:
Experiment in all cases: inhibition of tumour cell growth, NCI panel, 48 h
[1] = tested on: CAKI-1 renal
[2] = tested on: MDA-N
[3] = tested on: HCT-15 colon
[4] = tested on: MDA-MB-435
[5] = tested on: NCI-H226 lung
[6] = tested on: HCC-2998 colon
[7] = tested on: SK-OV-3 ovarian
[8] = tested on: SNB-75 CNS
[9] = tested on: ACHN renal
[10] = tested on: TK-10 renal
[11] = tested on: CCRF-CEM leukemia
[12] = tested on: EKVX NSCLC
[13] = tested on: DU-145 prostate
[14] = tested on: SK-MEL-2 melanoma
[15] = tested on: M14 melanoma
[16] = tested on: SF-295 CNS
[17] = tested on: U251 CNS
[18] = tested on: KM12 colon
[19] = tested on: UACC-257 melanoma
[20] = tested on: RPMI-8226 leukemia
[21] = tested on: OVCAR-4 ovarian
[22] = tested on: RXF 393 renal
[23] = tested on: SK-MEL-28 melanoma
[24] = tested on: HT29 colon
[25] = tested on: HOP-62 NSCLC
[26] = tested on: MDA-MB-231 breast
[27] = tested on: SF-268 CNS
[28] = tested on: HCT-116 colon
[29] = tested on: A549 NSCLC
[30] = tested on: LOX IMVI melanoma
[31] = tested on: NCI-H23 lung
[32] = tested on: UO-31 renal
[33] = tested on: NCI/ADR-RES ovarian
[34] = tested on: SR leukemia
[35] = tested on: SF-539 CNS
[36] = tested on: 786-0 renal
[37] = tested on: UACC-62 melanoma
[38] = tested on: MCF7 breast
[39] = tested on: OVCAR-8 ovarian
[40] = tested on: BT-549 breast
[41] = tested on: NCI-H460 lung
[42] = tested on: OVCAR-5 ovarian
[43] = tested on: SW-620 colon
[44] = tested on: MALME-3M melanoma
[45] = tested on: SN12C renal
[46] = tested on: PC-3 prostate
[47] = tested on: NCI-H522 lung
[48] = tested on: HOP-92 NSCLC
[49] = tested on: COLO 205 colon
[50] = tested on: T-47D breast
[51] = tested on: K-562 leukemia
[52] = tested on: SK-MEL-5 melanoma
[53] = tested on: SNB-19 CNS
[54] = tested on: HS 578T breast
[55] = tested on: MOLT-4 leukemia
[56] = tested on: OVCAR-3 ovarian
[57] = tested on: A498 renal
[58] = tested on: HL-60(TB) leukemia
[59] = tested on: IGROV1 ovarian

In the case of `NCCCCCCn1c(-c2ccc(Br)cc2)csc1=Nc1ccccc1`, the TGI [1] is reported as 28.3 µM, the TGI [2] is reported as 19.7 µM and the TGI [3] is reported as 22.1 µM. The TGI [4] was 22.6 µM, the TGI [5] was 39.5 µM and the TGI [6] was 12.8 µM. It also gave a TGI [7] of 31.1 µM, a TGI [8] of 24.2 µM and a TGI [9] of 27.7 µM. The TGI [10] was 26.7 µM, the TGI [11] was 21.6 µM and the TGI [12] was 26.7 µM. It also gave a TGI [13] of 26.3 µM, a TGI [14] of 33.4 µM and a TGI [15] of 3.17 µM. For the same compound, the TGI [16] was 29.5 µM, the TGI [17] was 20.9 µM and the TGI [18] was 19.7 µM. It also gave a TGI [19] of 29.6 µM, a TGI [20] of 16.2 µM and a TGI [21] of 25.9 µM. For the same compound, the TGI [22] was 26.2 µM, the TGI [23] was 27.2 µM and the TGI [24] was 19.9 µM. It also gave a TGI [25] of 32.4 µM, a TGI [26] of 30.3 µM and a TGI [27] of 31.3 µM. The TGI [28] was 15.1 µM, the TGI [29] was 25 µM and the TGI [30] was 13.1 µM. The TGI [31] was 29.8 µM, the TGI [32] was 22.1 µM and the TGI [33] was 28.8 µM. It also gave a TGI [34] of 11.3 µM, a TGI [35] of 30.6 µM and a TGI [36] of 21.9 µM. It also gave a TGI [37] of 32.1 µM, a TGI [38] of 17.4 µM and a TGI [39] of 26.2 µM. It also gave a TGI [40] of 27.4 µM, a TGI [41] of 27.1 µM and a TGI [42] of 24.6 µM. The TGI [43] was 17.6 µM, the TGI [44] was 25.6 µM and the TGI [45] was 26.5 µM. It also gave a TGI [46] of 18.3 µM, a TGI [47] of 24 µM and a TGI [48] of 32.4 µM. For the same compound, the TGI [49] was 3.18 µM, the TGI [50] was 18.3 µM and the TGI [51] was 4.84 µM. It also gave a TGI [52] of 21.7 µM, a TGI [53] of 29 µM and a TGI [54] of 35.6 µM. For the same compound, the TGI [55] was 14.8 µM, the TGI [56] was 23.7 µM and the TGI [57] was 33.6 µM.
`CCN(CC)CCn1ncc2c3c(=O)c4cccnc4n(CCN(CC)CC)c3ccc21` gave a TGI [1] greater than 10 µM, a TGI [2] greater than 10 µM and a TGI [3] greater than 10 µM. For the same compound, the TGI [4] was greater than 10 µM, the TGI [5] was greater than 10 µM and the TGI [6] was greater than 10 µM. The TGI [7] was greater than 10 µM, the TGI [58] was greater than 10 µM and the TGI [8] was greater than 10 µM. It also gave a TGI [9] greater than 10 µM, a TGI [10] greater than 10 µM and a TGI [11] greater than 10 µM. The TGI [59] was greater than 10 µM, the TGI [12] was greater than 10 µM and the TGI [13] was greater than 10 µM. The TGI [14] was greater than 10 µM, the TGI [15] was greater than 10 µM and the TGI [16] was greater than 10 µM. For the same compound, the TGI [17] was greater than 10 µM, the TGI [18] was greater than 10 µM and the TGI [19] was greater than 10 µM. The TGI [20] was greater than 10 µM, the TGI [21] was greater than 10 µM and the TGI [22] was greater than 10 µM. The TGI [23] was greater than 10 µM, the TGI [24] was greater than 10 µM and the TGI [25] was greater than 10 µM. The TGI [26] was greater than 10 µM, the TGI [27] was greater than 10 µM and the TGI [28] was greater than 10 µM. For the same compound, the TGI [29] was greater than 10 µM, the TGI [30] was greater than 10 µM and the TGI [31] was greater than 10 µM. The TGI [33] was greater than 10 µM, the TGI [34] was greater than 10 µM and the TGI [35] was greater than 10 µM. For the same compound, the TGI [36] was greater than 10 µM, the TGI [37] was greater than 10 µM and the TGI [38] was greater than 10 µM. For the same compound, the TGI [39] was greater than 10 µM, the TGI [40] was greater than 10 µM and the TGI [41] was greater than 10 µM. It also gave a TGI [42] greater than 10 µM, a TGI [43] greater than 10 µM and a TGI [44] greater than 10 µM. For the same compound, the TGI [45] was greater than 10 µM, the TGI [46] was greater than 10 µM and the TGI [47] was greater than 10 µM. For the same compound, the TGI [48] was greater than 10 µM, the TGI [49] was 6.67 µM and the TGI [50] was greater than 10 µM. For the same compound, the TGI [51] was greater than 10 µM, the TGI [52] was greater than 10 µM and the TGI [53] was greater than 10 µM. The TGI [54] was greater than 10 µM, the TGI [55] was greater than 10 µM and the TGI [56] was greater than 10 µM. For the same compound, the TGI [57] was greater than 10 µM.
